Source: patent publication US20250188033A1, “INHIBITOR OF REPLICATION PROTEIN A1 OF TRYPANOSOMA BRUCEI AND METHOD OF USE THEREOF” (Research Foundation of the City University of New York, published 2025)
Like-named read-outs stand apart in the source and are kept apart here.

Assays:
Trypanosoma brucei = assay: ALAMARBLUE cell viability / growth assay of T. brucei cells; type: cell-based
How it was run: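 Parasites seeded at 1×10^3 cells/ml in triplicate, exposed to compound for 72 h (0.0075% DMSO vehicle). AlamarBlue added for 4-6 h, fluorescence read at 560/590 nm; % viable cells calculated from RFU normalized to DMSO control, EC50 from 0.5-50 μM series.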

HEK293 cells = assay: ALAMARBLUE cell viability assay of human cells (HEK293); type: cell-based
Experimental: (§1) Human cell lines, HeLa and HEK293 were maintained in Dulbecco's modified MEM (D-MEM, GIBCO) supplemented with 10% fetal bovine serum (GIBCO) at 37° C. with 5% CO2.
(§2) To determine the inhibitory effect of JC-229 on human cells, HeLa and HEK293 cells were suspended in 180 μl D-MEM with 10% FBS and plated at a density of 2×10^4 cells/ml in triplicate. Cells were adhered overnight, and the medium was replaced, and cells were then incubated for 72 hours with increasing concentrations of JC-229 (0.5 μM to 50 μM) and cell viability was determined using the ALAMARBLUE® dye as described above. Percent viability was plotted using GraphPad Prism software. […] The EC50 values were estimated using the concentration of JC-229 that cause 50% reduction of cell viability (inhibitor vs. normalized response, variable slope).

HeLa cells = assay: ALAMARBLUE cell viability assay of human cells (HeLa); type: cell-based
Experimental: as §1, §2

T. brucei cells [1] = assay: Cell-cycle analysis by PI staining and flow cytometry; type: cell-based, Trypanosoma brucei; conditions: 10 μM
Experimental: (§3) Without wishing to be bound to any particular theory, if JC-229 indeed binds and inhibits the functions of TbRPA1, as predicted from the structural model, JC-229-treated trypanosome cells should show similar phenotypes to TbRPA1-depleted cells without affecting TbRPA1 protein levels. Wild-type T. brucei cells was treated with 10 μM JC-229 for 48 hours and the cell-cycle profile and efficiency of DNA synthesis was monitored. TbRPA1, γH2A, VSG3, and Tubulin protein levels were also monitored (FIG. 3A, FIG. 3B, FIG. 3C and FIG. 3D).
About 10 million cells were collected after tetracycline induction or after JC-229 treatment. Cells were fixed with ice-cold 70% ethanol and incubated with 50 μg/ml PI (Sigma-Aldrich) and 200 μg/ml RNase A (Sigma-Aldrich) in 1×PBS (Corning) at 37° C. for 30 min in the dark. Samples were analyzed by flow cytometry (FACSVia, BD Biosciences) and FLOWJO®.

T. brucei cells [2] = assay: Immunoblotting of TbRPA1, γH2A and VSG3 protein levels; type: cell-based, Trypanosoma brucei; conditions: 10 μM; for fold increase in the levels of γH2A: relative to untreated, normalized to tubulin
Experimental: as §3
Cells were harvested at indicated time points and suspended in Laemmli buffer (Bio-Rad) at 0.25 million cells per μl. Denatured proteins from whole cells were separated on a 4-20% gradient SDS-PAGE gel (BioRAD) and transferred to nitrocellulose membrane (GE Healthcare). The membranes were probed with polyclonal antibodies against TbRPA1 (a gift from Bibo Li laboratory) or γH2A (generated by ABclonal for this study), or monoclonal mouse antibodies against VSG3 (Antibody and Bioresource Core facility, MSKCC) or tubulin (Sigma) in 1× PBS with 0.1% Tween 20 and 1% milk (BioRAD) at 4° C. overnight. The membranes were then incubated with secondary antibodies conjugated with Horseradish Peroxidase (HRP) (GE healthcare) for the detection of corresponding proteins using chemiluminescence (Hyglo from Denville Scientific, ChemiDoc Imaging System from BioRAD).

TbRPA1 DBD-AB F64A [3] = target: T1, TbRPA1 DBD-AB F64A (Trypanosoma brucei, UniProt Q384B5 Q384B5:1-257, F64A); assay: MST; no ssDNA-binding activity; conditions: tags: 6xHis, pET28a, E. coli; label: 5' Cy5
TbRPA1 DBD-AB W188A [4] = target: T2, TbRPA1 DBD-AB W188A (Trypanosoma brucei, UniProt Q384B5 Q384B5:1-257, W188A); assay: MST; no ssDNA-binding activity; conditions: tags: 6xHis, pET28a, E. coli; label: 5' Cy5
[5] = target: T3, TbRPA complex (RPA1/RPA2/RPA3) (Trypanosoma brucei, UniProt Q384B5;Q57ZN9;Q38DK0 Q384B5:1-463,Q57ZN9:1-255,Q38DK0:1-127); assay: MST; 10 mM MgCl2, 10 mM NaCl, Tris pH 7.5, 22 C; JC-229 inhibits binding, IC50 24.5 nM; conditions: tags: 6xHis-thrombin site on RPA1 (pSR8), E. coli; one complex per dT32 stated; label: 5' Cy5
T3 sequence 1: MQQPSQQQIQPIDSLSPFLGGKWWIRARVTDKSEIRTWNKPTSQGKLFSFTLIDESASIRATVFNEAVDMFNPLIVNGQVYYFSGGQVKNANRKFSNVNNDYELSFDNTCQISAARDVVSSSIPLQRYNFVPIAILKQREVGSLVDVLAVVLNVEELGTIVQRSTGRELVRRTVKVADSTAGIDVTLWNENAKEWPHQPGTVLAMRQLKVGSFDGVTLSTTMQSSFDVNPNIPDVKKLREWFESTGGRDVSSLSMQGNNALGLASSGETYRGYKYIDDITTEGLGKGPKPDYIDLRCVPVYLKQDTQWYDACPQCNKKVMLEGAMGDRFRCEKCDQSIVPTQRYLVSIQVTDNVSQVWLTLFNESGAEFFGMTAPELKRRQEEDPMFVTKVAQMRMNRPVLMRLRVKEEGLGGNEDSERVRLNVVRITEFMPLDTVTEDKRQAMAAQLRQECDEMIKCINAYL
T3 sequence 2: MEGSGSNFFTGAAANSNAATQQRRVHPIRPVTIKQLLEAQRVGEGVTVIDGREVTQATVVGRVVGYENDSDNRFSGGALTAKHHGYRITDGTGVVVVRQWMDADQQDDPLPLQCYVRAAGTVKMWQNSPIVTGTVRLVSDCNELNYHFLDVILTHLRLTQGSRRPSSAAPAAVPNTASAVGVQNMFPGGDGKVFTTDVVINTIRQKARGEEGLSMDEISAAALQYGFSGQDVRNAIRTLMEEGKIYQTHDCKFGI
T3 sequence 3: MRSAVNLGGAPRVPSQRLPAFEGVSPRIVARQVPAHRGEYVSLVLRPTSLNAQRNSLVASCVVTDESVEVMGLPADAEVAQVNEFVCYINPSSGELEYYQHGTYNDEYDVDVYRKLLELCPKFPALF
Experimental: FIG. 5C are graphs showing recombinant TbRPA complex was 2-fold serially diluted from 400 nM concentration and these were incubated with 10 nM 5′Cy5-dT₃₂. Binding was analyzed by MST (left). Serial dilutions of JC-229 were pre-incubated with 25 nM TbRPA complex and then with 10 nM 5′Cy5-dT₃₂. Inhibition of binding was analyzed by MST (right).
(§4) MST experiments were performed on Monolith NT.115 instrument with red filter (Nanotemper Technologies) in MST binding buffer (20 mM Tris, pH 7.5, 10 mM NaCl, 10 mM MgCl₂, 2 mM DTT, 10% glycerol and 0.1 mg/ml BSA) using premium-coated capillaries (Nanotemper Technologies). MST experiments were performed with 40% LED power and 40% MST power at 22° C.
(§5) ssDNA-binding assay: The 5′Cy5 labeled-oligo dT32 was purchased from IDT. Increasing concentrations of purified protein (from 0.06 nM to 2,000 nM for DBD-AB proteins; from 0.02 nM to 800 nM for RPA complexes) were incubated with equal volume (10 μl) of 5′Cy5-labeld oligo dT₃₂ (10 nM final concentration) in MST binding buffer for 15 min at room temperature. Samples were then loaded into MST capillaries.

HsRPA1 DBD-AB = HsRPA1 DBD-AB (Homo sapiens, UniProt P27694 P27694:181-422); assay: MST; 10 mM MgCl2, 10 mM NaCl, Tris pH 7.5, 22 C; not inhibited by JC-229; conditions: tags: 6xHis, pET28a (pSR15), E. coli; label: 5' Cy5
HsRPA1 DBD-AB, sequence (P27694 181-422, one chain of several): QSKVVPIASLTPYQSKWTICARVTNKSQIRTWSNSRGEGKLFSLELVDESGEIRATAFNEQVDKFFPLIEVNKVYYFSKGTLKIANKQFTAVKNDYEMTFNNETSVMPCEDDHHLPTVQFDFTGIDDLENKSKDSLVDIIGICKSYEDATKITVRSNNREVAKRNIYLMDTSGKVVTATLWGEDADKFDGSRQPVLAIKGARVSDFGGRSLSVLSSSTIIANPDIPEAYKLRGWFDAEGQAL
Experimental: as §4, §5

LmexRPA1 DBD-AB = target: T4, LmexRPA1 DBD-AB (Leishmania mexicana, UniProt E9B001 E9B001:1-258); assay: as above; conditions: tags: N-terminal 6xHis, pET28a (pSR16), E. coli; label: 5' Cy5
T4 sequence: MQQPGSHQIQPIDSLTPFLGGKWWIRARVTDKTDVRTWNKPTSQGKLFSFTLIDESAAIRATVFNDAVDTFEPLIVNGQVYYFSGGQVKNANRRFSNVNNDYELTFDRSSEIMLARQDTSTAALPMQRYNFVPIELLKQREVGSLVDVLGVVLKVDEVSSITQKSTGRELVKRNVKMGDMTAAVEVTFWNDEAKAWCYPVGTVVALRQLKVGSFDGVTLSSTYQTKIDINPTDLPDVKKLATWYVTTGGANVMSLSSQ
Experimental: as §4, §5

TcRPA1 DBD-AB = target: T5, TcRPA1 DBD-AB (Trypanosoma cruzi, UniProt Q4DXC9 Q4DXC9:1-256); assay: MST; p171-172 quotes 12.6 nM for the same WT protein; 10 mM MgCl2, 22 C; not inhibited by JC-229; conditions: tags: N-terminal 6xHis, pET28a (pSR13), E. coli; label: 5' Cy5
T5 sequence: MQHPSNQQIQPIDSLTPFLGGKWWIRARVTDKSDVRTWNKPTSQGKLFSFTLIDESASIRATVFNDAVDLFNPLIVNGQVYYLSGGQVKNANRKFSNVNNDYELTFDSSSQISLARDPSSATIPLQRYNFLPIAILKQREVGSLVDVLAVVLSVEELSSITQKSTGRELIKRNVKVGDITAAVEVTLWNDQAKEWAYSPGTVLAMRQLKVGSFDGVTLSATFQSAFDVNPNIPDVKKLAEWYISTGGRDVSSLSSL
Experimental: as §4, §5

TcRPA1 DBD-AB T105S = TcRPA1 DBD-AB T105S (Trypanosoma cruzi, UniProt Q4DXC9 Q4DXC9:1-256, T105S); assay: MST; 10 mM MgCl2, 22 C; JC-229 IC50 159x10^3 nM; conditions: tags: N-terminal 6xHis, pET28a, E. coli; label: 5' Cy5
TbRPA1 DBD-AB F64A [6] = target: T1, TbRPA1 DBD-AB F64A; assay: EMSA; no ssDNA-binding activity; conditions: tags: 6xHis, pET28a, E. coli; label: 5' IRDye800
TbRPA1 DBD-AB W188A [7] = target: T2, TbRPA1 DBD-AB W188A; assay: EMSA; no ssDNA-binding activity; conditions: tags: 6xHis, pET28a, E. coli; label: 5' IRDye800
TbRPA1 DBD-AB S105T = TbRPA1 DBD-AB S105T (Trypanosoma brucei, UniProt Q384B5 Q384B5:1-257, S105T); assay: EMSA; 10 mM MgCl2, RT; not inhibited by JC-229; conditions: tags: 6xHis, pET28a, E. coli; label: 5' IRDye800

Molecule `Cc1ccc(C(=O)Nc2ccc(Cl)c(Cl)c2)cc1S(=O)(=O)Nc1ccc(Cl)c(Cl)c1` [JC-229, N-(3,4-dichlorophenyl)-3-(N-(3,4-dichlorophenyl)sulfamoyl)-4-methylbenzamide] has an EC50 (Trypanosoma brucei; Trypanosoma brucei, 72 h, read-out: EC50 (T. brucei viability), T. brucei, 0.5 to 50 μM, 72 hours) of 6.6 µM, an inhibition at 2 µM (Trypanosoma brucei; Trypanosoma brucei, T. brucei, 2 μM, 72 hours, normalized to DMSO control) of 24% and an inhibition at 5 µM (Trypanosoma brucei; Trypanosoma brucei, T. brucei, 5 μM, 72 hours, normalized to DMSO control) of 76%. For the same molecule, the inhibition at 10 µM (Trypanosoma brucei; Trypanosoma brucei, T. brucei, 10 μM, 72 hours, normalized to DMSO control) was 100%, the EC50 (Trypanosoma brucei; read-out: EC50 (T. brucei viability), T. brucei, 0.5 to 50 μM, 72 hours) was 6.5 µM and the EC50 (HEK293 cells; HEK293, 0.5 to 50 μM, 72 hours, estimated, curve did not reach bottom plateau) was 18.4 µM. It also gave an inhibition at 6.5 µM (HEK293 cells; HEK293, at 6.5 μM (EC50 to T. brucei)) of under 20%, an inhibition at 50 µM (HEK293 cells; HEK293, at 50 μM, the maximum concentration) of under 100% and an EC50 (HeLa cells; 0.5 to 50 μM, 72 hours, estimated, curve did not reach bottom plateau) of 32.1 µM. The inhibition at 6.5 µM (HeLa cells; at 6.5 μM (EC50 to T. brucei)) was under 20%, the inhibition at 50 µM (HeLa cells; at 50 μM, the maximum concentration) was under 100% and the sub-G1 population (T. brucei cells [1]; 32-hour time point) was about 45%. The “cells that lost the bulk of their DNA” value (T. brucei cells [1]; by 48 hours) was about 97%, the “fold increase in the levels of γH2A” value (T. brucei cells [2]; 16 hours) was “approximately 5 fold” and the “fold increase in VSG3 protein levels” value (T. brucei cells [2]; 24 hours) was about 3 fold. For the same molecule, the “fold increase in the levels of γH2A” value (T. brucei cells [2]; 24 hours) was about 7 fold.

TTTTTTTTTTTTTTTTTTTTTTTTTTTTTTTT (ssDNA) [5'Cy5-dT32] was tested, and the binding result (TbRPA1 DBD-AB F64A [3]) was “no binding”, the binding result (TbRPA1 DBD-AB W188A [4]) was “no binding” and the Kd [5] was 13.2 nM. The Kd (HsRPA1 DBD-AB) was 48 nM, the Kd (LmexRPA1 DBD-AB) was 12.6 nM and the Kd (TcRPA1 DBD-AB) was 13.2 nM. The Kd (TcRPA1 DBD-AB T105S) was 52.4 nM.

TTTTTTTTTTTTTTTTTTTTTTTTTTTTTTTT (ssDNA) [5'IRDye800-dT32]: no binding (TbRPA1 DBD-AB F64A [6]); no binding (TbRPA1 DBD-AB W188A [7]); binds (TbRPA1 DBD-AB S105T).
